Measurements from US9403810B2, “Carboxamide derivatives” (Novartis AG, priority 2014, dated 2016).

These compounds were tested against Smurf-1 (Homo sapiens (Human), UniProt Q9HCE7) (assay: HECT E3 ligase autoubiquitinylation TR-FRET assay (Smurf-1)). Conditions: 8-point dose-response curve, 3 nM to 10 uM; 45 min incubation.
Format: biochemical
From the text: To determine the HECT E3 ligase selectivity of the compounds, a panel of biochemical HECT E3 ligase autoubiquitinylation assays was employed (Smurf-1, Smurf-2, WWP1, WWP2, ITCH, Nedd4, Nedd4L and E6AP). The conjugation of ubiquitin to a protein substrate is a multistep process. In an initial ATP-requiring step, a thioester bond is formed between the carboxyl terminus of ubiquitin and an internal cystein residue of the ubiquitin-activating enzyme (E1). Activated ubiquitin is then transferred to a specific cystein residue of an ubiquitin-conjugating enzyme (E2). E2s donate ubiquitin to a HECT E3 ligase (E3) from which it is transferred to the substrate protein. HECT E3 ligases can auto-ubiquitinylate. This event is detected in the TR-FRET (Time-Resolved Fluorescence Resonance Energy Transfer) assay used in this panel. The reaction mix contains E1, E2, tagged-E3, biotin-conjugated ubiquitin, the compound and ATP in a suitable buffer and is incubated for 45 minutes to allow auto-ubiquitinylation of the E3 ligase. To measure the extent of ubiquitinylated E3 ligase by TR-FRET, the donor fluorophore Europium cryptate (Eu3+ cryptate), conjugated to streptavidin which subsequently binds to biotinylated ubiquitin, and the modified allophycocyanin XL665 (HTRF® primary acceptor fluorophore) coupled to a tag-specific antibody (HA, His or GST), which recognizes the respective E3 ligase fusion proteins, are added after the reaction is complete. When these two fluorophores are brought together by a bimolecular interaction (in this case ubiquitinylation of the E3 ligase), a portion of the energy captured by the Cryptate during excitation is released through fluorescence emission at 620 nm, while the remaining energy is transferred to XL665. This energy is then released by XL665 as specific fluorescence at 665 nm. Light at 665 nm is emitted only through FRET with Europium.
Test and reference compounds are prepared at 180× [final] in 90% DMSO, and diluted 1:3 in 90% DMSO.
For the biochemical assay panel, 50 nl of the test compounds, reference compounds and buffer/DMSO control are transferred to the respective wells of a 384-well white GREINER “SMALL VOLUME” PS plate. The assay panel is run at room temperature on a Biomek FX liquid handling workstation. To the assay plates containing 50 nl compound or control solutions in 90% DMSO, 4.5 ul of E3 ligase solution were added per well, followed by 4.5 ul of the pre-incubated E1/E2/Ub mix or the pre-diluted ubiquitin (LOW control). Plates are shaken vigorously after each addition. In this assay the compound concentrations range from 3 nM to 10 uM in an 8-point dose-response curve.
After an incubation time of 45 min in the dark, the plates are transferred into the Pherastar fluorescence reader to measure the TR-FRET signal.

Sequence of Smurf-1 (Q9HCE7 whole entry): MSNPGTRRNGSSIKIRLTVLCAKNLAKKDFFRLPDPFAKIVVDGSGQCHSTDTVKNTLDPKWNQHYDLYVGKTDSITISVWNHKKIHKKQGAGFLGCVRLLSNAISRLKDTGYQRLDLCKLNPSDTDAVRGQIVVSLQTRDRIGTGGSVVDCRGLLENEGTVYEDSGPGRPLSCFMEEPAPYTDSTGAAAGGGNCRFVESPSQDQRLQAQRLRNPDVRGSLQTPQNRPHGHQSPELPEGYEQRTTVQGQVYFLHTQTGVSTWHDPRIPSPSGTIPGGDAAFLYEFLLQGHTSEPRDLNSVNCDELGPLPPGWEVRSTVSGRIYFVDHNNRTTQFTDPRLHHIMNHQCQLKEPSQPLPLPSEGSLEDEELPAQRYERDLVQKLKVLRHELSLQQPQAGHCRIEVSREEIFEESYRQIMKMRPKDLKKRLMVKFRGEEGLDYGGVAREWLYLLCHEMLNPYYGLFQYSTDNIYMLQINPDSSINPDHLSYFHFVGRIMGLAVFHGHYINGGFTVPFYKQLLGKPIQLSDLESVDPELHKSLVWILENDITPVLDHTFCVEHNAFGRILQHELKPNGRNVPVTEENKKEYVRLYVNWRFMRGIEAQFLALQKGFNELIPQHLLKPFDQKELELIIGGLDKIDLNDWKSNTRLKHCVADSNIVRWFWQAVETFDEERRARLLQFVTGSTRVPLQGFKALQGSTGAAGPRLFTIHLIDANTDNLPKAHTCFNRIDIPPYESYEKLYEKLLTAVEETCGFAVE

Row | Compound | IC50
1 | CO[C@@H]1C[C@@H](C(C)(C)C)O[C@@H](c2onc(C(=O)Nc3c(C)n(C)n(C4CCC4)c3=O)c2C)C1.CO[C@@H]1C[C@@H](c2onc(C(=O)Nc3c(C)n(C)n(C4CCC4)c3=O)c2C)O[C@@H](C(C)(C)C)C1 (mixture of isomers) [Example 14, 5-((2R,4R,6S)-6-(tert-butyl)-4-methoxytetrahydro-2H-pyran-2-yl)-N-(2-cyclobutyl-1,5-dimethyl-3-oxo-2,3-dihydro-1H-pyrazol-4-yl)-4-methylisoxazole-3-carboxamide and 5-((2S,4S,6R)-6-(tert-butyl)-4-methoxytetrahydro-2H-pyran-2-yl)-N-(2-cyclobutyl-1,5-dimethyl-3-oxo-2,3-dihydro-1H-pyrazol-4-yl)-4-methylisoxazole-3-carboxamide] | 2.5 µM
2 | Cc1c(C(=O)Nc2c(C)n(C)n(C3CCCCC3)c2=O)noc1C1CC=CC(C(C)C)O1 (mixture of isomers) [Example 18] | 0.091 µM
3 | CO[C@H]1C[C@@H](c2onc(C(=O)Nc3c(C)n(C)n(C4CCCCC4)c3=O)c2C)O[C@@H](C(C)(C)C)C1 (racemic) [Example 13, 5-((2S,4R,6R)-6-(tert-butyl)-4-methoxytetrahydro-2H-pyran-2-yl)-N-(2-cyclohexyl-1,5-dimethyl-3-oxo-2,3-dihydro-1H-pyrazol-4-yl)-4-methylisoxazole-3-carboxamide and 5-((2R,4S,6S)-6-(tert-butyl)-4-methoxytetrahydro-2H-pyran-2-yl)-N-(2-cyclohexyl-1,5-dimethyl-3-oxo-2,3-dihydro-1H-pyrazol-4-yl)-4-methylisoxazole-3-carboxamide] | 0.64 µM
4 | Cc1c(C(=O)Nc2c(C)n(C)n(C3CCCCC3)c2=O)noc1[C@@H]1CC=C[C@H](C)O1 (racemic) [Example 19, N-(2-cyclohexyl-1,5-dimethyl-3-oxo-2,3-dihydro-1H-pyrazol-4-yl)-4-methyl-5-((2S,6S)-6-methyl-3,6-dihydro-2H-pyran-2-yl)isoxazole-3-carboxamide and N-(2-cyclohexyl-1,5-dimethyl-3-oxo-2,3-dihydro-1H-pyrazol-4-yl)-4-methyl-5-((2R,6R)-6-methyl-3,6-dihydro-2H-pyran-2-yl)isoxazole-3-carboxamide] | 1.8 µM

Further lines, results first:

Row | IC50 | Compound
5 | 0.29 µM | CO[C@H]1C[C@@H](c2onc(C(=O)Nc3c(C)n(C)n(C4CCCCC4)c3=O)c2C)O[C@@H](C(C)(C)C)C1 (single isomer, unassigned) [Example 13a, 5-((2S,4R,6R)-6-(tert-butyl)-4-methoxytetrahydro-2H-pyran-2-yl)-N-(2-cyclohexyl-1,5-dimethyl-3-oxo-2,3-dihydro-1H-pyrazol-4-yl)-4-methylisoxazole-3-carboxamide or 5-((2R,4S,6S)-6-(tert-butyl)-4-methoxytetrahydro-2H-pyran-2-yl)-N-(2-cyclohexyl-1,5-dimethyl-3-oxo-2,3-dihydro-1H-pyrazol-4-yl)-4-methylisoxazole-3-carboxamide]
6 | 0.73 µM | CO[C@H]1C[C@@H](c2onc(C(=O)Nc3c(C)n(C)n(C4CCCCC4)c3=O)c2C)O[C@@H](C(C)(C)C)C1 (single isomer, unassigned) [Example 13b, 5-((2S,4R,6R)-6-(tert-butyl)-4-methoxytetrahydro-2H-pyran-2-yl)-N-(2-cyclohexyl-1,5-dimethyl-3-oxo-2,3-dihydro-1H-pyrazol-4-yl)-4-methylisoxazole-3-carboxamide or 5-((2R,4S,6S)-6-(tert-butyl)-4-methoxytetrahydro-2H-pyran-2-yl)-N-(2-cyclohexyl-1,5-dimethyl-3-oxo-2,3-dihydro-1H-pyrazol-4-yl)-4-methylisoxazole-3-carboxamide]
